In article PMC7769008 (Journal of medicinal chemistry, 2020):

Details: pH 7.4

Row | Compound | PAMPA
1 | Nc1nnc2n(CCc3ccccc3)c(=O)c3cc(F)ccc3n12 [Compound 16, 1-Amino-7-fluoro-4-phenethyl-[1,2,4]triazolo[4,3-a]quinazolin-5(4H)-one] | 885 ×10⁻⁶ cm/s
2 | O=c1c2cc(F)ccc2n2cnnc2n1CCc1ccccc1 [Compound 18, 7-Fluoro-4-phenethyl-[1,2,4]triazolo[4,3-a]quinazolin-5(4H)-one] | 924 ×10⁻⁶ cm/s
3 | CCn1c(=O)c2ccccc2n2c(=S)[nH]nc12 [Compound 20, 4-Ethyl-1-thioxo-2,4-dihydro-[1,2,4]triazolo[4,3-a]quinazolin-5(1H)-one] | 427 ×10⁻⁶ cm/s
4 | O=c1c2cc(F)ccc2n2c(=S)[nH]nc2n1CCc1ccccc1 [Compound 40, 7-Fluoro-4-phenethyl-1-thioxo-2,4-dihydro-[1,2,4]triazolo[4,3-a]quinazolin-5(1H)-one] | 77.0 ×10⁻⁶ cm/s
5 | O=c1c2cc(Br)ccc2n2c(=S)[nH]nc2n1CCc1ccccc1 [Compound 41, 7-Bromo-4-phenethyl-1-thioxo-2,4-dihydro-[1,2,4]triazolo[4,3-a]quinazolin-5(1H)-one] | 162 ×10⁻⁶ cm/s
6 | CC(=O)Nc1ccc2c(c1)c(=O)n(CCc1ccccc1)c1n[nH]c(=S)n21 [Compound 44, N-(5-Oxo-4-phenethyl-1-thioxo-1,2,4,5-tetrahydro-[1,2,4]-triazolo[4,3-a]quinazolin-7-yl)acetamide] | 253 ×10⁻⁶ cm/s
7 | CN(C)c1ccc2c(c1)c(=O)n(CCc1ccccc1)c1n[nH]c(=S)n21 [Compound 45, 7-(Dimethylamino)-4-phenethyl-1-thioxo-2,4-dihydro-[1,2,4]-triazolo[4,3-a]quinazolin-5(1H)-one] | 356 ×10⁻⁶ cm/s
8 | O=c1c2ccc(F)cc2n2c(=S)[nH]nc2n1CCc1ccccc1 [Compound 47, 8-Fluoro-4-phenethyl-1-thioxo-2,4-dihydro-[1,2,4]triazolo[4,3-a]quinazolin-5(1H)-one] | 91.0 ×10⁻⁶ cm/s
9 | O=c1c2cccc(F)c2n2c(=S)[nH]nc2n1CCc1ccccc1 [Compound 48, 9-Fluoro-4-phenethyl-1-thioxo-2,4-dihydro-[1,2,4]triazolo[4,3-a]quinazolin-5(1H)-one] | 141 ×10⁻⁶ cm/s
10 | O=c1c2ccncc2n2c(=S)[nH]nc2n1CCc1ccccc1 [Compound 50, 4-Phenethyl-1-thioxo-2,4-dihydropyrido[4,3-e][1,2,4]triazolo-[4,3-a]pyrimidin-5(1H)-one] | 202 ×10⁻⁶ cm/s
11 | O=c1c2cc(F)ccc2n2c(=S)[nH]nc2n1Cc1ccccc1 [Compound 52, 4-Benzyl-7-fluoro-1-thioxo-2,4-dihydro-[1,2,4]triazolo[4,3-a]-quinazolin-5(1H)-one] | 841 ×10⁻⁶ cm/s
12 | O=c1c2cc(Cl)ccc2n2c(=S)[nH]nc2n1CCC(F)(F)F [Compound 55, 7-Chloro-1-thioxo-4-(3,3,3-trifluoropropyl)-2,4-dihydro-[1,2,4]-triazolo[4,3-a]quinazolin-5(1H)-one] | 257 ×10⁻⁶ cm/s
13 | CNC(=S)N1CN(CCc2ccccc2)C(=O)c2cc(F)ccc21 [Compound 62, 6-Fluoro-N-methyl-4-oxo-3-phenethyl-3,4-dihydroquinazoline-1(2H)-carbothioamide] | 161 ×10⁻⁶ cm/s
14 | O=c1c2cc(F)ccc2n2c(=S)[nH]nc2n1CCCO [Compound 66, 7-Fluoro-4-(3-hydroxypropyl)-1-thioxo-2,4-dihydro-[1,2,4]-triazolo[4,3-a]quinazolin-5(1H)-one] | 222 ×10⁻⁶ cm/s
15 | CC(CN(C)C)n1c(=O)c2cc(F)ccc2n2c(=S)[nH]nc12 (stereo not drawn) [Compound 71, 4-(1-(Dimethylamino)propan-2-yl)-7-fluoro-1-thioxo-2,4-dihydro-[1,2,4]triazolo[4,3-a]quinazolin-5(1H)-one] | 186 ×10⁻⁶ cm/s
16 | CC(=O)NCCCn1c(=O)c2cc(F)ccc2n2c(=S)[nH]nc12 [Compound 73, N-(3-(7-Fluoro-5-oxo-1-thioxo-1,2-dihydro-[1,2,4]triazolo[4,3-a]-quinazolin-4(5H)-yl)propyl)acetamide] | 18.0 ×10⁻⁶ cm/s
17 | O=C(NCCCn1c(=O)c2cc(F)ccc2n2c(=S)[nH]nc12)c1ccccc1 [Compound 74, N-(3-(7-Fluoro-5-oxo-1-thioxo-1,2-dihydro-[1,2,4]triazolo[4,3-a]-quinazolin-4(5H)-yl)propyl)benzamide] | 267 ×10⁻⁶ cm/s
18 | O=c1c2cc(F)ccc2n2c(=S)[nH]nc2n1CC1CC1 [Compound 79, 4-(Cyclopropylmethyl)-7-fluoro-1-thioxo-2,4-dihydro-[1,2,4]-triazolo[4,3-a]quinazolin-5(1H)-one] | 46.0 ×10⁻⁶ cm/s

Row | Compound | PAMPA
19 | O=c1c2cc(F)ccc2n2c(=S)[nH]nc2n1CCc1ccc(Cl)cc1 [Compound 82, 4-(4-Chlorophenethyl)-7-fluoro-1-thioxo-2,4-dihydro-[1,2,4]-triazolo[4,3-a]quinazolin-5(1H)-one] | <1 ×10⁻⁶ cm/s
20 | O=c1c2cc(F)ccc2n2c(=S)[nH]nc2n1CCc1cccnc1 [Compound 84, 7-Fluoro-4-(2-(pyridin-3-yl)ethyl)-1-thioxo-2,4-dihydro-[1,2,4]-triazolo[4,3-a]quinazolin-5(1H)-one] | <1 ×10⁻⁶ cm/s
21 | CC(C)(C)OC(=O)N1CC(CCn2c(=O)c3cc(F)ccc3n3c(=S)[nH]nc23)C1 [Compound 86, tert-Butyl 3-(2-(7-fluoro-5-oxo-1-thioxo-1,2-dihydro-[1,2,4]-triazolo[4,3-a]quinazolin-4(5H)-yl)ethyl)azetidine-1-carboxylate] | 229 ×10⁻⁶ cm/s
22 | O=c1c2cc(F)ccc2n2c(=S)[nH]nc2n1CCN1CCCCC1 [Compound 88, 7-Fluoro-4-(2-(piperidin-1-yl)ethyl)-1-thioxo-2,4-dihydro-[1,2,4]-triazolo[4,3-a]quinazolin-5(1H)-one] | 358 ×10⁻⁶ cm/s
23 | O=c1c2cc(F)ccc2n2c(=S)[nH]nc2n1CCN1CCC(F)(F)CC1 [Compound 89, 4-(2-(4,4-Difluoropiperidin-1-yl)ethyl)-7-fluoro-1-thioxo-2,4-di-hydro-[1,2,4]triazolo[4,3-a]quinazolin-5(1H)-one] | 234 ×10⁻⁶ cm/s
24 | O=c1c2cc(F)ccc2n2c(=S)[nH]nc2n1CCN1CCOCC1 [Compound 90, 7-Fluoro-4-(2-morpholinoethyl)-1-thioxo-2,4-dihydro-[1,2,4]-triazolo[4,3-a]quinazolin-5(1H)-one] | 67.0 ×10⁻⁶ cm/s
25 | O=c1c2cc(F)ccc2n2c(=S)[nH]nc2n1CCC1CCC(F)(F)CC1 [Compound 93, 4-(2-(4,4-Difluorocyclohexyl)ethyl)-7-fluoro-1-thioxo-2,4-dihydro-[1,2,4]triazolo[4,3-a]quinazolin-5(1H)-one] | 201 ×10⁻⁶ cm/s
26 | CC(C)(C)OC(=O)NCCCCCC(=O)NCCCn1c(=O)c2cc(F)ccc2n2c(=S)[nH]nc12 [Compound 101, tert-Butyl (6-((3-(7-fluoro-5-oxo-1-thioxo-1,2-dihydro-[1,2,4]-triazolo[4,3-a]quinazolin-4(5H)-yl)propyl)amino)-6-oxohexyl)-carbamate] | 405 ×10⁻⁶ cm/s
27 | O=C(O)CCC(=O)NCCCn1c(=O)c2cc(F)ccc2n2c(=S)[nH]nc12 [Compound 106, 4-((3-(7-Fluoro-5-oxo-1-thioxo-1,2-dihydro-[1,2,4]triazolo[4,3-a]quinazolin-4(5H)-yl)propyl)amino)-4-oxobutanoic Acid] | <1 ×10⁻⁶ cm/s
28 | NS(=O)(=O)CCCC(=O)NCCCn1c(=O)c2cc(F)ccc2n2c(=S)[nH]nc12 [Compound 107, N-(3-(7-Fluoro-5-oxo-1-thioxo-1,2-dihydro-[1,2,4]triazolo[4,3-a]-quinazolin-4(5H)-yl)propyl)-4-sulfamoylbutanamide] | 3.0 ×10⁻⁶ cm/s
29 | O=C(NCCCn1c(=O)c2cc(F)ccc2n2c(=S)[nH]nc12)C1CCCC1 [Compound 108, N-(3-(7-Fluoro-5-oxo-1-thioxo-1,2-dihydro-[1,2,4]triazolo[4,3-a]-quinazolin-4(5H)-yl)propyl)cyclopentanecarboxamide] | 155 ×10⁻⁶ cm/s
30 | CC(C)(C)OC(=O)NC1CCC(C(=O)NCCCn2c(=O)c3cc(F)ccc3n3c(=S)[nH]nc23)CC1 (stereo not drawn) [Compound 110, tert-Butyl (4-((3-(7-fluoro-5-oxo-1-thioxo-1,2-dihydro-[1,2,4]-triazolo[4,3-a]quinazolin-4(5H)-yl)propyl)carbamoyl)cyclohexyl)-carbamate] | 330 ×10⁻⁶ cm/s
31 | O=C(NCCCn1c(=O)c2cc(F)ccc2n2c(=S)[nH]nc12)C1CCOCC1 [Compound 115, N-(3-(7-Fluoro-5-oxo-1-thioxo-1,2-dihydro-[1,2,4]triazolo[4,3-a]-quinazolin-4(5H)-yl)propyl)tetrahydro-2H-pyran-4-carboxamide] | 8.0 ×10⁻⁶ cm/s
32 | CN1CCN(CC(=O)NCCCn2c(=O)c3cc(F)ccc3n3c(=S)[nH]nc23)CC1 [Compound 117, N-(3-(7-Fluoro-5-oxo-1-thioxo-1,2-dihydro-[1,2,4]triazolo[4,3-a]-quinazolin-4(5H)-yl)propyl)-2-(4-methylpiperazin-1-yl)acetamide] | <1 ×10⁻⁶ cm/s
33 | O=C(CN1CCOCC1)NCCCn1c(=O)c2cc(F)ccc2n2c(=S)[nH]nc12 [Compound 118, N-(3-(7-Fluoro-5-oxo-1-thioxo-1,2-dihydro-[1,2,4]triazolo[4,3-a]-quinazolin-4(5H)-yl)propyl)-2-morpholinoacetamide] | <1 ×10⁻⁶ cm/s
34 | O=C(Cc1ccccc1)NCCCn1c(=O)c2cc(F)ccc2n2c(=S)[nH]nc12 [Compound 120, N-(3-(7-Fluoro-5-oxo-1-thioxo-1,2-dihydro-[1,2,4]triazolo[4,3-a]-quinazolin-4(5H)-yl)propyl)-2-phenylacetamide] | 248 ×10⁻⁶ cm/s
35 | O=C(Cc1cccc(F)c1)NCCCn1c(=O)c2cc(F)ccc2n2c(=S)[nH]nc12 [Compound 122, N-(3-(7-Fluoro-5-oxo-1-thioxo-1,2-dihydro-[1,2,4]triazolo[4,3-a]-quinazolin-4(5H)-yl)propyl)-2-(3-fluorophenyl)acetamide] | 364 ×10⁻⁶ cm/s
36 | O=C(Cc1cccc(Cl)c1)NCCCn1c(=O)c2cc(F)ccc2n2c(=S)[nH]nc12 [Compound 124, 2-(3-Chlorophenyl)-N-(3-(7-fluoro-5-oxo-1-thioxo-1,2-dihydro-[1,2,4]triazolo[4,3-a]quinazolin-4(5H)-yl)propyl)acetamide] | 861 ×10⁻⁶ cm/s
